Test results: patent US10273223B2, “Substituted 6,5-fused bicyclic heteroaryl compounds” (Epizyme, Inc., priority 2011, dated 2019)

Legend:
[1] = target: EZH2 (PRC2 enzyme complex: EZH2, EED, Suz12, RbAp48) (Homo sapiens (Human), UniProt O75530+Q09028+Q15022+Q15910); experiment: PRC2 enzyme assay on peptide substrates (3H-SAM Flashplate)
Source text: S-adenosylmethionine (SAM), S-adenosylhomocyteine (SAH), bicine, KCl, Tween20, dimethylsulfoxide (DMSO) and bovine skin gelatin (BSG) were purchased from Sigma-Aldrich at the highest level of purity possible. Dithiothreitol (DTT) was purchased from EMD. ^3H-SAM was purchased from American Radiolabeled Chemicals with a specific activity of 80 Ci/mmol. 384-well streptavidin Flashplates were purchased from PerkinElmer.
Recombinant PRC2 Enzymes. Human PRC2 enzymes were purified as 4-component enzyme complexes co-expressed in Spodoptera frugiperda (sf9) cells using a baculovirus expression system. The subunits expressed were wild-type EZH2 (NM_004456) or EZH2 Y641F, N, H, S or C mutants generated from the wild-type EZH2 construct, EED (NM_003797), Suz12 (NM_015355) and RbAp48 (NM_005610). The EED subunit contained an N-terminal FLAG tag that was used to purify the entire 4-component complex from sf9 cell lysates. The purity of the complexes met or exceeded 95% as determined by SDS-PAGE and Agilent Bioanalyzer analysis.
The assays were all performed in a buffer consisting of 20 mM bicine (pH=7.6), 0.5 mM DTT, 0.005% BSG and 0.002% Tween20, prepared on the day of use. […] DMSO (1 μL) was added to columns 11, 12, 23, 24, rows A-H for the maximum signal control, and SAH, a known product and inhibitor of PRC2 (1 μL) was added to columns 11,12, 23, 24, rows I-P for the minimum signal control. A cocktail (40 μL) containing the wild-type PRC2 enzyme and H3K27me0 peptide or any of the Y641 mutant enzymes and H3K27me2 peptide was added by Multidrop Combi (Thermo). The compounds were allowed to incubate with PRC2 for 30 min at 25° C., then a cocktail (10 μL) containing a mixture of non-radioactive and ^3H-SAM was added to initiate the reaction (final volume=51 μL). […] The assays were stopped by the addition of non-radioactive SAM (10 μL) to a final concentration of 600 μM, which dilutes the ^3H-SAM to a level where its incorporation into the peptide substrate is no longer detectable. 50 μL of the reaction in the 384-well polypropylene plate was then transferred to a 384-well Flashplate and the biotinylated peptides were allowed to bind to the streptavidin surface for at least 1 h before being washed three times with 0.1% Tween20 in a Biotek ELx405 plate washer. The plates were then read in a PerkinElmer TopCount platereader to measure the quantity of ^3H-labeled peptide bound to the Flashplate surface, measured as disintegrations per minute (dpm) or alternatively, referred to as counts per minute (cpm).
The Hill Coefficient normally allowed to float but may also be fixed at 1 in a 3-parameter fit. Y is the % inhibition and X is the compound concentration.

[2] = target: EZH2 (PRC2 enzyme complex: EZH2, EED, Suz12, RbAp48) (Homo sapiens (Human), UniProt Q15910); experiment: as above; conditions: read-out: EZH2 IC50; PRC2 enzyme assays on peptide substrates; 4 nM enzyme, 30 min preincubation at 25° C.; EZH2 form (wild-type or Y641 mutant) not stated in tables
Chain of EZH2 (PRC2 enzyme complex: EZH2, EED, Suz12, RbAp48) (Homo sapiens (Human), UniProt Q15910) (Q15910 other isoform, or with tags, fused parts or gaps): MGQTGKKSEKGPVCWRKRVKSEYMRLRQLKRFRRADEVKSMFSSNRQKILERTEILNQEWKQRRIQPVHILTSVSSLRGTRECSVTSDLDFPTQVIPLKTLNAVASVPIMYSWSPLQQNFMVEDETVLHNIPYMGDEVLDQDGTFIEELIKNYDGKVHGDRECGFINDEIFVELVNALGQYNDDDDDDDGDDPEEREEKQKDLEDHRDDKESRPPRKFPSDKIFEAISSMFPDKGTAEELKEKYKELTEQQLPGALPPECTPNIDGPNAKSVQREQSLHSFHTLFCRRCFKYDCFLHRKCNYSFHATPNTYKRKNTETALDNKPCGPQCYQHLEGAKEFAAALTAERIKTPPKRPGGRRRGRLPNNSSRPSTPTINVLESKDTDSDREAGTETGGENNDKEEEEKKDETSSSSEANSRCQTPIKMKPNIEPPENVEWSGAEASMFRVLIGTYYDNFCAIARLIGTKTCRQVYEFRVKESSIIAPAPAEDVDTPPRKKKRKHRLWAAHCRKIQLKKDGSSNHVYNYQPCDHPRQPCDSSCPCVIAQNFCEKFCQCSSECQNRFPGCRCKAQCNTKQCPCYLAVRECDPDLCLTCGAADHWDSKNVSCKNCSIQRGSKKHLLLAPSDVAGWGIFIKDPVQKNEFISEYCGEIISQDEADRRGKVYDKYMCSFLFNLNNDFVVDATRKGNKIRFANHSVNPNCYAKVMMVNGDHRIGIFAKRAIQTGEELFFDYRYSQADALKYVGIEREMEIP
Chain of EZH2 (PRC2 enzyme complex: EZH2, EED, Suz12, RbAp48) (Homo sapiens (Human), UniProt Q15910) (O75530 whole entry partner): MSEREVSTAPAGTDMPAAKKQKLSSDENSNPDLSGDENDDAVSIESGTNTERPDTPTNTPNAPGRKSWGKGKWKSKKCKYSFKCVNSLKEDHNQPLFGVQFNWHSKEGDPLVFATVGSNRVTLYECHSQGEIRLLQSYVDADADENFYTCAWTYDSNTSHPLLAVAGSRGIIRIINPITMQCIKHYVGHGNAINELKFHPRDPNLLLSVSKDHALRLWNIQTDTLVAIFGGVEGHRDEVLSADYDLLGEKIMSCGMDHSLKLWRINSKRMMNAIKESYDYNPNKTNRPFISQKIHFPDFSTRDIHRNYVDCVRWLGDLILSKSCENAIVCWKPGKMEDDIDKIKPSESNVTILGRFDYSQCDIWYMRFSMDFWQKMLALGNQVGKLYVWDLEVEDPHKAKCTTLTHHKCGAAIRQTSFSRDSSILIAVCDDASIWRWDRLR
Chain of EZH2 (PRC2 enzyme complex: EZH2, EED, Suz12, RbAp48) (Homo sapiens (Human), UniProt Q15910) (Q15022 whole entry partner): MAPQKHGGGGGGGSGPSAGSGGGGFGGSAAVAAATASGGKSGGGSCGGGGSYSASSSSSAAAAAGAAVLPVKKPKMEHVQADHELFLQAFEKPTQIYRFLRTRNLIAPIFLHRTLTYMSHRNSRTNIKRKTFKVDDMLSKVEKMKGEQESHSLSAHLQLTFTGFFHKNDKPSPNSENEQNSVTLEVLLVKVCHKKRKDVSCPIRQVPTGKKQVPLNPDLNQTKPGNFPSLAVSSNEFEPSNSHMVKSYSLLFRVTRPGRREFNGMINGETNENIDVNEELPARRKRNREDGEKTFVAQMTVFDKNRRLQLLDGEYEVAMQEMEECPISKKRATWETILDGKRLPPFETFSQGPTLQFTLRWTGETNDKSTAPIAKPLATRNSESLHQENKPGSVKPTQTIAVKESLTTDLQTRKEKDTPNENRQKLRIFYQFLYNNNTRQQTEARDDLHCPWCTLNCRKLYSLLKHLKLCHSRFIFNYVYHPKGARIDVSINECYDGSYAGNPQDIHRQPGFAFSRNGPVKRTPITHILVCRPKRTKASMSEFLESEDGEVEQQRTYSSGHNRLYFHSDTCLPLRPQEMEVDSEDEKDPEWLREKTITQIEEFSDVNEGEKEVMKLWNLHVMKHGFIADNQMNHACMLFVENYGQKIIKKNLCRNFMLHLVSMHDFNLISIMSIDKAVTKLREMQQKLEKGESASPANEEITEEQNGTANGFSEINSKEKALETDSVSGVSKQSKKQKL
Chain of EZH2 (PRC2 enzyme complex: EZH2, EED, Suz12, RbAp48) (Homo sapiens (Human), UniProt Q15910) (Q09028 whole entry partner): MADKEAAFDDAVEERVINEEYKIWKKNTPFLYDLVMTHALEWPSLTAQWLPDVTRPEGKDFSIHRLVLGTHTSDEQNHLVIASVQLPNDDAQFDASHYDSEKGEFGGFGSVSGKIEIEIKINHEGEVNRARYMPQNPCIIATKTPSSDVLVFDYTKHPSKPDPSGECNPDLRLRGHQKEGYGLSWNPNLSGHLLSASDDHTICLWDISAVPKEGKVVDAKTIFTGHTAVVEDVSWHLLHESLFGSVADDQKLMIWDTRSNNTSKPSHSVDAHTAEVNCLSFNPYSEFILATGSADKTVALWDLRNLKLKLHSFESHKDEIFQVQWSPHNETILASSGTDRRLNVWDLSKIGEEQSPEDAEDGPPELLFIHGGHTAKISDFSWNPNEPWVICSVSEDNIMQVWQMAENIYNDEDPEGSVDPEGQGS

Chain of EZH2 (PRC2 enzyme complex: EZH2, EED, Suz12, RbAp48) (Homo sapiens (Human), UniProt O75530+Q09028+Q15022+Q15910) (Q15910 other isoform, or with tags, fused parts or gaps): as the sequence (Q15910 other isoform, or with tags, fused parts or gaps) above
Chain of EZH2 (PRC2 enzyme complex: EZH2, EED, Suz12, RbAp48) (Homo sapiens (Human), UniProt O75530+Q09028+Q15022+Q15910) (O75530 whole entry partner): as the sequence (O75530 whole entry partner) above
Chain of EZH2 (PRC2 enzyme complex: EZH2, EED, Suz12, RbAp48) (Homo sapiens (Human), UniProt O75530+Q09028+Q15022+Q15910) (Q15022 whole entry partner): as the sequence (Q15022 whole entry partner) above
Chain of EZH2 (PRC2 enzyme complex: EZH2, EED, Suz12, RbAp48) (Homo sapiens (Human), UniProt O75530+Q09028+Q15022+Q15910) (Q09028 whole entry partner): as the sequence (Q09028 whole entry partner) above

Row | SMILES | IC50 [1] | IC50 [2]
1 | Cc1cc[nH]c(=O)c1CNC(=O)c1cc(-c2ccc3c(c2)OCCO3)nc2c1cnn2C(C)(C)C [Compound A-77] | 10 to 50 µM | 
2 | Cc1cc(C)c(CNC(=O)c2cc(C3CC(C)(C)NC(C)(C)C3)nc3c2cnn3C2CCCC2)c(=O)[nH]1 [Compound B-4, 1-cyclopentyl-N-((4,6-dimethyl-2-oxo-1,2-dihydropyridin-3-yl)methyl)-6-(2,2,6,6-tetramethylpiperidin-4-yl)-1H-pyrazolo[3,4-b]pyridine-4-carboxamide] |  | < 0.3 µM
3 | Cc1cc(C(C)C)c(CNC(=O)c2cc(C3=CC(C)(C)NC(C)(C)C3)nc3c2cnn3C(C)C)c(=O)[nH]1 [Compound B-148] | 10 to 50 µM | 
4 | CC1=CC(C)=C(CNC(=O)c2cc(C3=CCN(C(=O)C4CN(C)C4)CC3)cc3c2cnn3C2CCCC2)C(C)N1 [Compound D-50] |  | < 0.3 µM
5 | CNCCN1CCC(c2cc(C(=O)NCC3=C(C)C=C(C)NC3C)c3cnn(C4CCCC4)c3c2)CC1 [Compound D-51] |  | < 0.3 µM

The remaining lines, values ahead:

Row | IC50 [1] | IC50 [2] | SMILES
6 | 0.3 to 1 µM |  | Cc1cc(C)c(CNC(=O)c2cc(-c3cccc(CN(C)CCN4CCCC4)c3)nc3c2cnn3C(C)C)c(=O)[nH]1 [Compound A-41]
7 | 0.3 to 1 µM |  | Cc1cc(C)c(CNC(=O)c2c(Cl)c(-c3ccc4c(c3)OCCO4)nc3c2cnn3C(C)C)c(=O)[nH]1 [Compound A-47]
8 | 1 to 3 µM |  | CNCCN(C)Cc1cccc(-c2cc(C(=O)NCc3c(C)cc(C)[nH]c3=O)c3cnn(C(C)C)c3n2)c1 [Compound A-58]
9 | 3 to 10 µM |  | Cc1cc(C)c(CNC(=O)c2cc(-c3ccccc3CN)nc3c2cnn3C(C)C)c(=O)[nH]1 [Compound A-68]
10 | 10 to 50 µM |  | Cc1cc(C)n(C)c(=O)c1CNC(=O)c1cc(-c2cccc(CN(C)CCN(C)C)c2)nc2c1cnn2C(C)C [Compound A-74]
11 | 1 to 3 µM |  | Cc1cc(C)c(CNC(=O)c2cc(-c3cccc(CNCCCN(C)C)c3)nc3c2cnn3C(C)C)c(=O)[nH]1 [Compound A-125]
12 | 1 to 3 µM |  | Cc1cc(C)c(CNC(=O)c2cc(C(C)C)nc3c2cnn3C(C)C)c(=O)[nH]1 [Compound B-109]
